Results published in patent US12351574B2, “Selective ligands for modulation of GIRK channels” (Northeastern University, priority 2018, dated 2025).

Target: T1, GIRK1/2(I-V) (UniProt P48542+P48549, I97V)
T1 construct: expressed in transfected cells; host or cells: Xenopus laevis oocytes (cRNA injection)
T1 sequence (P48549 1-501): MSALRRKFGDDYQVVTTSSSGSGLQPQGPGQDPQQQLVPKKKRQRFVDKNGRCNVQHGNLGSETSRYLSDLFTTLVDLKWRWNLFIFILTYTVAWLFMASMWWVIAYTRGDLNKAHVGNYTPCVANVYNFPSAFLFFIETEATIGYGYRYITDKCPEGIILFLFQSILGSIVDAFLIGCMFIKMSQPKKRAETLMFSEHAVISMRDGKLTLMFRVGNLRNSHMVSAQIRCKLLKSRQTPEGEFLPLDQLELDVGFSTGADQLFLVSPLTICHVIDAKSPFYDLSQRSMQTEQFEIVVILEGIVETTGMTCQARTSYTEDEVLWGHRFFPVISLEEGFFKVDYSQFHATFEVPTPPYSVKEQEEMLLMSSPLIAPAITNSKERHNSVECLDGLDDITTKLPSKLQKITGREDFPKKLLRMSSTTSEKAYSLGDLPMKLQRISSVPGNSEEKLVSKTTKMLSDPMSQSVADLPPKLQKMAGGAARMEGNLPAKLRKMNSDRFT
T1 sequence (P48542 1-425 I97V): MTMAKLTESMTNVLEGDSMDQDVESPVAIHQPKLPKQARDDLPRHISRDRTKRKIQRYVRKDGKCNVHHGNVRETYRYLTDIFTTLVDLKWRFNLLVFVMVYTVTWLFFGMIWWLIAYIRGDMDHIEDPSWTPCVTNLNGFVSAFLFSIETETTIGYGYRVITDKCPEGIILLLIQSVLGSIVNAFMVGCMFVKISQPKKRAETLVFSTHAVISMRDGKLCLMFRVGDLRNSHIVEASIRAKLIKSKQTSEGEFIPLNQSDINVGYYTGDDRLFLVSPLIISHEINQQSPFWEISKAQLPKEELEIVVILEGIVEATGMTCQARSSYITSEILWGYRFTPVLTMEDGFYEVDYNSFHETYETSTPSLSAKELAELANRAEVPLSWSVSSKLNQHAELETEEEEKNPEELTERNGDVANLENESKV
Assay: TEVC in Xenopus oocytes, single mutant GIRK1/2(I-V)
Type: cell-based, human GIRK1, mouse GIRK2
Conditions: GIRK1/2(I-V) single mutant
From the text: Molecular biology: For Xenopus oocyte expression, human GIRK1 and human GIRK4 cDNAs were subcloned into pGEMHE. For mammalian expression, human GIRK1 and human GIRK4 cDNAs were subcloned into pcDNA3 and pcDNA3.1/V5-His B, respectively (Invitrogen). Mouse GIRK2 cDNA was subcloned in the dual-function vector, pXoom. Point mutations were introduced using a standard Pfu-based mutagenesis technique according to the QuikChange protocol (Agilent). Mutations were verified by sequencing.
Electrophysiology of oocytes: Whole-oocyte currents were measured by conventional two-electrode voltage clamp (TEVC) with a GeneClamp 500 amplifier (Axon Instruments). Agarose cushion microelectrodes were filled with 1.5% (w/v) agarose in 3 M KCl and were used with resistances between 0.1 and 1.5 megaohms. […] Barium-sensitive basal currents from both groups, 1) Vehicle, 2) single concentration at 10 μM and 3) multiple concentrations of ML297 or GAT compounds in the presence of HK solution, were assessed at −80 mV using TEVC. Barium-sensitive currents were normalized to average basal current in the vehicle solutions. The HK solution contained the following: 96 mM KCl, 1 mM NaCl, 1 mM MgCl2, 5 mM KOH/HEPES, pH 7.4. The barium solution consisted of HK+10 mM BaCl2. Five to ten oocytes from the same batch (same frog) were recorded for each group, and the experiments were repeated in at least four batches. Data acquisition and analysis were carried out using pClamp9 (Molecular Devices) and OriginPro (Microcal) software.
To test these computational predictions, the inventors mutated each or both of the two M1 key wild-type GIRK4 subunit residues to the corresponding GIRK2 residues (GIRK4-V92I, GIRK4-T94V, GIRK4-V92I/T94V or GIRK4-dm) and vice-versa the GIRK2 residues to the corresponding GIRK4 ones (GIRK2-I97V, GIRK2-V99T, GIRK2-I97V/V99T or GIRK2-dm) (FIG. 35). […]

EC50: 500 ± 110 nM | EMAX: 1.61±0.03 | Emax (read-out: EMAX, % of the control GIRK1/2): 42%
SMILES: Cc1cc(NC(=O)Nc2ccc(Br)s2)n(-c2ccccc2)n1 [GAT1508, 1-(5-bromothiophen-2-yl)-3-(3-methyl-1-phenyl-1H-pyrazol-5-yl)urea]
